# Laboratory results reported in ChEMBL document CHEMBL4813985, “Lead optimization generates selenium-containing miconazole CYP51 inhibitors with improved pharmacological profile for the treatment of fungal infections” (Eur J Med Chem, 2021).
# Experiments:
# [1] = Hemolytic activity in rabbit RBC assessed as hemolysis ratio at 16 ug/ml measured after 3 hrs by microplate reader assay relative to control; format: ADME, cell-based, Oryctolagus cuniculus, Erythrocyte; conditions: rabbit red blood cells (erythrocytes), at 16 µg/mL, read-out: Activity
# Cryptococcus neoformans = assay: Antifungal activity against Cryptococcus neoformans CMGCC2.3161 measured after 72 hrs by broth microdilution assay; format: functional
# Candida albicans [2] = assay: Antifungal activity against fluconazole-resistant Candida albicans 901 assessed as inhibition of microbial growth after 24 hrs by broth microdilution method; format: functional
# [3] = Hemolytic activity in rabbit RBC assessed as hemolysis ratio at 4 ug/ml measured after 3 hrs by microplate reader assay relative to control; format: ADME, cell-based, Oryctolagus cuniculus, Erythrocyte; conditions: rabbit red blood cells (erythrocytes), at 4 µg/mL, read-out: Activity
# [4] = Hemolytic activity in rabbit RBC assessed as hemolysis ratio at 8 ug/ml measured after 3 hrs by microplate reader assay relative to control; format: ADME, cell-based, Oryctolagus cuniculus, Erythrocyte; conditions: rabbit red blood cells (erythrocytes), at 8 µg/mL, read-out: Activity
# Candida albicans [5] = assay: Antifungal activity against Candida albicans ATCC SC5314 measured after 24 hrs by broth microdilution assay; format: functional
# Erythrocyte = assay: Hemolytic activity in rabbit RBC measured after 3 hrs by microplate reader assay; format: ADME, cell-based, Oryctolagus cuniculus
# [Candida] zeylanoides = Antifungal activity against Candida zeylanoides CMGCC2.3739 measured after 24 hrs by broth microdilution assay; format: functional; conditions: Dujonia zeylanoides
# Candida albicans [6] = assay: Antifungal activity against fluconazole-resistant Candida albicans CaR assessed as inhibition of microbial growth after 24 hrs by broth microdilution method; format: functional
# [7] = Hemolytic activity in rabbit RBC assessed as hemolysis ratio at 2 ug/ml measured after 3 hrs by microplate reader assay relative to control; format: ADME, cell-based, Oryctolagus cuniculus, Erythrocyte; conditions: rabbit red blood cells (erythrocytes), at 2 µg/mL, read-out: Activity
# PC-3 = assay: Cytotoxicity against human PC3 cells assessed as reduction in cell viability incubated for 96 hrs by MTT assay; format: cell-based; conditions: PC-3, 96 h, read-out: IC50
# HL-60 = assay: Cytotoxicity against human HL-60 cells assessed as reduction in cell viability incubated for 96 hrs by MTT assay; format: cell-based; conditions: HL-60, 96 h
# Candida albicans [8] = assay: Antifungal activity against fluconazole-resistant Candida albicans 632 assessed as inhibition of microbial growth after 24 hrs by broth microdilution method; format: functional
# Nakaseomyces glabratus = assay: Antifungal activity against Candida glabrata measured after 24 hrs by broth microdilution assay; format: functional
# Candida albicans [9] = assay: Antifungal activity against Candida albicans CPCC400616 measured after 24 hrs by broth microdilution assay; format: functional
# MDA-MB-231 = assay: Cytotoxicity against human MDA-MB-231 cells assessed as reduction in cell viability incubated for 96 hrs by MTT assay; conditions: MDA-MB-231, 96 h
# Candida parapsilosis = assay: Antifungal activity against Candida parapsilosis ATCC 22019 measured after 24 hrs by broth microdilution assay; format: functional; conditions: Lodderomyces parapsilosis
# [10] = Hemolytic activity in rabbit RBC assessed as hemolysis ratio at 1 ug/ml measured after 3 hrs by microplate reader assay relative to control; format: ADME, cell-based, Oryctolagus cuniculus, Erythrocyte; conditions: rabbit red blood cells (erythrocytes), at 1 µg/mL, read-out: Activity
# [11] = Metabolic stability in mouse liver microsomes assessed as clearance; format: ADME, Microsome; conditions: read-out: CLH
# Candida albicans [12] = assay: Antifungal activity against fluconazole-resistant Candida albicans 17# assessed as inhibition of microbial growth after 24 hrs by broth microdilution method; format: functional
# Candida albicans [13] = assay: Antifungal activity against fluconazole-resistant Candida albicans 904 assessed as inhibition of microbial growth after 24 hrs by broth microdilution method; format: functional
# Pichia kudriavzevii = assay: Antifungal activity against Candida krusei AS2.1045 measured after 24 hrs by broth microdilution assay; format: functional
# Aspergillus fumigatus = assay: Antifungal activity against Aspergillus fumigatus CMGCC3.7795 measured after 72 hrs by broth microdilution assay; format: functional
# MCF-10A = assay: Cytotoxicity against human MCF-10A cells assessed as reduction in cell viability incubated for 96 hrs by MTT assay; format: cell-based; conditions: read-out: IC50
# [14] = Metabolic stability in mouse liver microsomes assessed as half life; format: ADME, Microsome
# Candida albicans [15] = assay: Anti-biofilm activity in Candida albicans CPCC400616 assessed as inhibition of biofilm formation incubated for 24 hrs with 6 hrs precultured fungal suspension by XTT assay; format: functional
# Candida albicans [16] = assay: Anti-biofilm activity in Candida albicans CPCC400616 assessed as inhibition of biofilm formation incubated for 24 hrs with 1.5 hrs precultured fungal suspension by XTT assay; format: functional
# Candida albicans [17] = assay: Fungicidal activity against Candida albicans CPCC400616 assessed as fungal killing incubated for 48 hrs followed by culturing on PDA plate for 24 hrs; format: functional; conditions: time 72 hrs
# Candida albicans [18] = assay: Anti-biofilm activity in Candida albicans CPCC400616 assessed as inhibition of biofilm formation incubated for 24 hrs with 24 hrs precultured fungal suspension by XTT assay; format: functional
# Candida albicans [19] = assay: Anti-biofilm activity in Candida albicans CPCC400616 assessed as inhibition of biofilm formation incubated for 24 hrs with 3 hrs precultured fungal suspension by XTT assay; format: functional
# Candida albicans [20] = assay: Potency index, ratio of fluconazole MIC to test compound MIC for Candida albicans CPCC400616 measured after 24 hrs by broth microdilution assay; format: functional
smiles,measurement,setting,value
Clc1ccc(C(Cn2ccnc2)[Se]Cc2ccccc2Cl)c(Cl)c1 (centres undefined),"hemolysis at 3 h, 16 ug/ml",[1],98.2%
same,MIC,Cryptococcus neoformans,0.25 mg/L
same,MIC,Candida albicans [2],0.5 mg/L
same,"hemolysis at 3 h, 4 ug/ml",[3],58.9%
same,"hemolysis at 3 h, 8 ug/ml",[4],93.2%
same,MIC,Candida albicans [5],0.01 mg/L
same,MHC,Erythrocyte,4 µg/mL
same,MIC,[Candida] zeylanoides,1 mg/L
same,MIC,Candida albicans [6],0.06 mg/L
same,"hemolysis at 3 h, 2 ug/ml",[7],3.15%
same,IC50,PC-3,13.1 µM
same,IC50,HL-60,1.02 µM
same,MIC,Candida albicans [8],1 mg/L
same,MIC,Nakaseomyces glabratus,0.5 mg/L
same,MIC,Candida albicans [9],0.02 mg/L
same,IC50,MDA-MB-231,9.06 µM
same,MIC,Candida parapsilosis,0.13 mg/L
same,"hemolysis at 3 h, 1 ug/ml",[10],0%
same,CLint scaled,[11],78.7 L/h/kg
same,MIC,Candida albicans [12],0.13 mg/L
same,MIC,Candida albicans [13],0.25 mg/L
same,MIC,Pichia kudriavzevii,0.13 mg/L
same,MIC,Aspergillus fumigatus,2 mg/L
same,IC50,MCF-10A,30.2 µM
same,half-life,[14],4.2 min
CCc1ccccc1[Se]C(Cn1ccnc1)c1ccc(F)cc1F (centres undefined),"hemolysis at 3 h, 16 ug/ml",[1],100%
same,MIC,Cryptococcus neoformans,1 mg/L
same,MIC,Candida albicans [2],2 mg/L
same,MIC50,Candida albicans [15],> 128 mg/L
same,MIC80,Candida albicans [15],> 128 mg/L
same,"hemolysis at 3 h, 4 ug/ml",[3],93.6%
same,"hemolysis at 3 h, 8 ug/ml",[4],100%
same,MIC50,Candida albicans [16],8 mg/L
same,MIC80,Candida albicans [16],128 mg/L
same,MFC99,Candida albicans [17],0.25 mg/L
same,MIC,Candida albicans [5],0.03 mg/L
same,MIC,[Candida] zeylanoides,0.25 mg/L
same,MIC,Candida albicans [6],0.5 mg/L
same,"hemolysis at 3 h, 2 ug/ml",[7],0%
same,IC50,PC-3,30.2 µM
same,IC50,HL-60,16.9 µM
same,MIC,Candida albicans [8],1 mg/L
same,MIC,Nakaseomyces glabratus,0.5 mg/L
same,MIC,Candida albicans [9],0.06 mg/L
same,IC50,MDA-MB-231,26.2 µM
same,MIC,Candida parapsilosis,0.03 mg/L
same,"hemolysis at 3 h, 1 ug/ml",[10],0%
same,CLint scaled,[11],22.1 L/h/kg
same,MIC,Candida albicans [12],0.5 mg/L
same,MIC,Candida albicans [13],0.5 mg/L
same,MIC,Pichia kudriavzevii,0.06 mg/L
same,MIC50,Candida albicans [18],> 128 mg/L
same,MIC80,Candida albicans [18],> 128 mg/L
same,MIC,Aspergillus fumigatus,16 mg/L
same,MIC50,Candida albicans [19],16 mg/L
same,MIC80,Candida albicans [19],> 128 mg/L
same,IC50,MCF-10A,28.1 µM
same,Ratio,Candida albicans [20],8
same,half-life,[14],14.9 min
